Legend:
[1] = system: C57BL/6J mice with intra-mPFC endoNF injection; assay: Novel object recognition test before and after intra-mPFC endoNF injection; format: in vivo, mouse; details: 30 min before encoding; sarcosine 600 mg/kg i.p. (d2); DP12 (d5) and DP1 (d6) 1 mg/kg intranasally
Procedure: Guide cannulas were fabricated using stainless steel tubing with outer/inner diameter Ø 0.711/0.483 mm (Science Products, Germany). Dummy cannulas were made from entomological pins, size 2, Ø 0.41 mm (FST, Germany). Chronic implantation of cannulas into the mPFC in mice was performed as described previously for intrahippocampal injections (Kochlamazashvili et al., 2012; Senkov et al., 2015; Senkov et al., 2006).
Acute injection of endoNF in vivo was done under a short isoflurane anesthesia. For intra-mPFC injection, we used a digitally controlled infusion system (UltraMicroPump, UMP3, and Micro4 Controller, WPI, USA) fed with a 10 μl-Hamilton syringe and NanoFil 135 μm (35 GA) beveled needle. The thin (135 μm) part of the needle went into the mouse brain during injection, whereas its thick part (430 μm) fit perfectly in the guide cannula (inside 483 μm). Injections were performed as follows: 1) a mouse was anesthetized with 1-3% isoflurane as during implantation; 2) it was put into the stereotaxic frame; 3) the dummy cannula was gently removed from the left guide cannula; 4) a NanoFil injecting needle was carefully placed inside of the guide cannula and advanced further down until reaching the marker (made with a permanent pen at the needle shank (430 μm) to visualize the point when the needle should reach the surface of the brain coming out of the guide cannula (equal to the length of guide cannula); 5) once the marker was reached, a slow (10 μm increment) step dial was used to deepen the needle into the brain; 6) endoNF (2 μg/μl) or vehicle was injected with the following settings: 250 nl per site as deep as 1.5 and 2.25 mm from the brain surface (total injection volume per hemisphere 500 nl, injection rate of 3 nl/s); 7) after injection was complete (˜5 min), the needle was left in the injection site for another 5 min and then gently removed; 8) the dummy cannula was then put back to its place; 9) the same procedure was performed for the right hemisphere. The whole injection process took approximately 20-25 min under isoflurane anesthesia, and the mice recovered rather quickly, starting to move in approximately 2-3 min after being returned to their home cages. Complete recovery of a mouse after such short anesthesia usually occurs within 3-5 min. After injection, mice were returned to their animal facility. Behavior experiments started on the day after injection at approximately the same time, so that we could perform cognitive tests 24 hours after injection.
A white open field arena (50×50×30 cm) was used in the novel object recognition task. All behavior was video recorded and analyzed automatically by software (ANY-maze, version 4.99, Stoelting Co., Wood Dale, Ill.). […]

[2] = system: NMDAR-mediated currents; details: cultured hippocampal neurons; cited from earlier work
[3] = system: NMDAR-EPSCs (GluN1/GluN2B receptors); assay: Evoked NMDAR-EPSCs, whole-cell patch-clamp of layer V pyramidal neurons in sham- or endoNF-treated mPFC slices; format: cell-based, mouse; details: endoNF-treated mPFC slices; DP1 10 μg/ml; DP5 1 μg/ml and 10 μg/ml
Excerpt: Each mouse was quickly sacrificed by cervical dislocation. After decapitation, the brain was rapidly removed from the skull and placed in ice-cold artificial cerebrospinal fluid (aCSF) equilibrated with 95% O2/5% CO2, which was composed of the following (in mM): 250 sucrose, 24 NaHCO3, 25 glucose, 2.5 KCl, 1.25 NaH2PO4, 2 CaCl2, and 1.5 MgCl2 (osmolarity 345-350 mOsm/kg, pH 7.4). Using a VT1200S vibratome (Leica, Nussloch, Germany), coronal slices containing the prelimbic and infralimbic cortices (1.9-1.3 mm anterior to bregma) were cut 350 μm or 400 μm thick, for patch clamp and extracellular recordings, respectively, in the same sucrose-containing aCSF. Then, the slices were transferred to a slice holding chamber filled with recording aCSF (osmolarity 300-305 mOsm/kg, pH 7.4) that contained 120 mM NaCl instead of sucrose (Eckhardt et al., 2000) and was continuously gassed with 95% O2/5% CO2.
For endoNF treatment in C57BL/6J mice, slices were first allowed to recover for 20 min at room temperature (22-24° C.) in recording aCSF and were then placed in a 24-well plate to be incubated in 2 ml of aCSF without (sham) or with addition of endoNF (10 μg/ml) at 35° C. for 2 hours. The 24-well plate was installed in a water bath (ED, Julabo, Seelbach, Germany). For field excitatory postsynaptic potential (fEPSP) recordings in knockout and transgenic mice, mPFC slices were incubated in recording aCSF for >2 hours at room temperature before recordings. For patch-clamp recordings in knockout mice, slices were incubated first at 35° C. for 20 min and then at room temperature for >30 min before recordings started. The aCSF was continuously gassed with 95% O2/5% CO2 during all incubation steps and recordings.
For whole-cell patch-clamp recordings, layer V pyramidal neurons were visualized using a SliceScope Pro 6000 equipped with a 40× water-immersion objective and infrared differential interference contrast microscopy (Scientifica, Uckfield, UK). Pyramidal cells were identified by their triangular soma and long apical dendrites, and synaptically evoked excitatory postsynaptic currents (EPSCs) were recorded using patch pipettes (3-5 MQ) fabricated using borosilicate glass capillaries (wall thickness 0.315, length 100, outer diameter 1.5 mm, Hilgenberg) and a DMZ-Zeitz puller (Zeitz Instruments GmbH, Martinsried, Germany). The intracellular pipette solution contained the following (in mM): 140.7 Cs-methane-sulfonate, 5 NaCl, 1 MgCl2, 0.2 EGTA, 10 HEPES, 3 ATP-Mg, 0.3 Na-GTP, and 3.1 QX-314 (osmolarity 295 mOsm/kg, adjusted to pH 7.2 with CsOH). EPSCs were evoked by electrical pulses (0.2 ms) at 0.033 Hz via a glass pipette placed in layer II/III of the mPFC (identically to fEPSPs). Mixed EPSCs showing a fast AMPAR-mediated component and a slow NMDAR-mediated component were recorded at a −60 mV holding potential in whole-cell voltage-clamp mode in normal aCSF. The stimulation intensity was adjusted to evoke mixed EPSCs with amplitudes of approximately 300 pA. The slow NMDAR-mediated component of EPSCs was pharmacologically isolated at −60 mV in modified aCSF containing low Mg^2+ (0.1 mM) and high Ca^2+ (3.2 mM, for adjustment of divalent cation concentrations), the selective antagonist of α-amino-3-hydroxy-5-methyl-4-isoxazolepropionic acid (AMPA)/kainate receptors NBQX (10 μM), and the selective antagonist of γ-aminobutyric acid (GABA)B receptors CGP-55845 (2 μM) (Chen et al., 2003). The washout of Mg^2+ required at least 25 min. Recordings at a holding potential near the resting membrane potential allowed us to obtain stable NMDAR-EPSC recordings from pyramidal cells lasting for 1-1.5 hours. Series resistance (Rs, range 10-25 MΩ) was compensated (20-30%) and monitored continuously. Neurons in which Rs changed by more than 20% throughout the experiment were not included in the analysis. In voltage-clamp mode, membrane potential was not corrected for liquid junction potential. […]

[4] = system: 5×FAD mice; assay: Recency test (increased difficulty) in 5×FAD mice; format: in vivo, mouse; details: intranasal, 0.5 mg/kg DP12 or equimolar, 2 hours before test; 90 min intervals
Procedure: The recency test comprised of two encoding phases followed by a retrieval phase (modified from Nelson et al., 2011). The interval between the encoding phases was 1 h, and the interval between the second encoding phase and the retrieval phase was 10 min, except for experiments in 5×FAD mice when both intervals were 90 min to make the task more difficult. In the first encoding phase, animals were placed into the open field arena and allowed to explore a pair of identical objects for 10 min. Then, a different pair of identical objects was presented in the second encoding phase (10 min total exploration time). During the retrieval phase, two different objects, one object from each encoding phase, were placed into the apparatus and animals were given 10 min to explore them.
Animals were randomly assigned to treatment groups using a randomized block design to counterbalance differences in age. The time of the day when tests were performed for different animals was also counterbalanced between treatment groups using a randomized block design. All measurements and statistical analyses were performed performed blindly, i.e. the tubes containing drugs/vehicle were coded. Exploration was defined as the animal approaching the object at a distance of less than 2 cm. The animal climbing onto the object with both hind- and forelimbs was not considered as exploration. In the same trial, objects were counterbalanced, and between trials, the placements of novel and familiar objects were changed. The objects used in the novel object recognition test were not employed in the recency test. Novelty detection was evaluated by calculating the discrimination ratio as follows: [novel object time−familiar object time]/[novel object time+familiar object time]×100%. In the recency test, the discrimination ratio was calculated as follows: [least recent object time−most recent object time]/[least object time+most recent object time]×100%. Unreliable measurements (about 10%), when animals spent in total ≤10 s near to both objects, were excluded from analysis.
As the recency test was consistently used for analysis of DP12 effects in other mouse models, it was further investigated whether 13- to 14-month-old 5×FAD mice are impaired in this form of memory. In this series of experiments, the intervals between each session during recency test were increased to 90 min to increase the difficulty to recall the temporal order of the two objects shown in the arena (FIG. 12(A)). […] To verify whether DP12 or avDP10-9OAc may improve cognitive function in the 5×FAD model of AD, these compounds or a vehicle (H2O) were intranasally delivered in the same cohort of 5×FAD mice before multiple recency test sessions (separated by 4 day-interval). The numbers of mice in each treatment group during one session were counterbalanced and each mouse received in a random order both drugs and the vehicle. […] In contrast, vehicle-treated 5×FAD mice explored the two objects equally (FIG. 12(C)).

[5] = system: dissociated hippocampal cultures (primary neural cells); assay: MTT assay of neural cell viability; format: cell-based, mouse; details: 30 to 1000 nM, 48 hours, from 10th day in vitro; DP10 effect at 30, 100 and 300 nM
Procedure: Primary hippocampal cells were dissociated from embryonic mice on embryonic day 18. To prepare the primary neural cultures, pregnant C57/BL6J mice were sacrificed by cervical dislocation. Embryos were decapitated, and the hippocampi isolated from brains under sterile conditions and dissected. Enzymatic digestion by 0.25% trypsin/EDTA solution was followed by separation of the cells in serum-containing medium via trituration (10 passes, 1 ml pipette). The primary cells were seeded onto 96-well plates coated with 100 μg/ml poly-lysine and 20 μg/ml laminin. The plating density was 20,000 cells per well. First, 200 μl Dulbecco's modified Eagle's medium (DMEM) was applied per well (supplemented with 1% penicillin-streptomycin and 1% L-glutamine and 2% B27). After incubation for 2 h at 37° C./5% CO2, the medium was exchanged with the pre-warmed Neurobasal medium including 1% penicillin-streptomycin, 1% L-glutamine, and 2% B27. The cells—predominantly neurons and astrocytes—were incubated at 37° C. in 5% CO2 humidified atmosphere for 10 days before administration of reagents.
The assay was performed as described elsewhere with minor modifications (Khalid et al., 2018). Primary neural cells (see above) grown in a 96-well plate were exposed to drugs/vehicles for 48 h at 37° C./5% CO2. After aspiration of culture media, a washing was done with 100 μl phosphate buffered saline (PBS, pH=7.2). Then, PBS was completely removed, and 100 μl phenol red-free pre-warmed Neurobasal media and 50 μl MTT solution (3-(4,5-dimethylthiazol-2-yl)-2,5-diphenyltetrazolium bromide, 5 mg/ml; dissolved in PBS) were added to each well and plates were incubated for 4 h in an incubator. […] DMSO destroyed the cells and released the formazan, which was detected by optical density value at 560 nm, measured using a plate reader. Optical density values for wells containing cells were corrected by subtracting values measured in cell-free wells prepared and treated in the same way as wells containing control cells.

| Compound | novel object recognition after intra-mPFC endoNF injection [1] | inhibition of NMDAR-mediated currents [2] | effect on the amplitude of NMDAR-EPSCs [3] | exploration of least recent versus most recent object in the retrieval phase [4] | object discrimination (discrimination ratio) compared to vehicle [4] | effect on neural cell viability [5] |
| --- | --- | --- | --- | --- | --- | --- |
| CC(=O)N[C@H]1[C@H]([C@H](O)[C@H](O)CO)OC(O)(C(=O)O)C[C@@H]1O (stereo partly drawn) [DP1, N-acetylneuraminic acid] | no effect | do not inhibit | no effect |  |  |  |
| (α(2→8)Neu5Ac)10 [DP10] |  |  |  | preference for the least recently explored object | significantly better in object discrimination | strong potentiating effect |
